Experimental findings from ChEMBL document CHEMBL1933049, “Methylenebissantin: a rare methylene-bridged bisflavonoid from Dodonaea viscosa which inhibits Plasmodium falciparum enoyl-ACP reductase” (Bioorg Med Chem Lett, 2012) are described below.

The target of this assay is T1, Enoyl-acyl-carrier protein reductase (Plasmodium falciparum, UniProt Q965D5).
T1 sequence (Q965D5 whole entry): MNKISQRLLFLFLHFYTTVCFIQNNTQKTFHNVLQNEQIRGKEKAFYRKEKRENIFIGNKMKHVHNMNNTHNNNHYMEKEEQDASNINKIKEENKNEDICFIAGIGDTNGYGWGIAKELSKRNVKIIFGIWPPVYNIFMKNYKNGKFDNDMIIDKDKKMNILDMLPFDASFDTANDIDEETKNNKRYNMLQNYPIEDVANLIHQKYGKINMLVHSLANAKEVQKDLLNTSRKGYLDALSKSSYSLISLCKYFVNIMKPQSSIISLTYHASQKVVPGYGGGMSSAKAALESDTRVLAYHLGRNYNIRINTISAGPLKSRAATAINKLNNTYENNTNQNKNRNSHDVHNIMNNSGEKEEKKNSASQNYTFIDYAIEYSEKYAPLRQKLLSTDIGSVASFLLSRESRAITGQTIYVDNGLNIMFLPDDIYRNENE
Briefly: Inhibition of Plasmodium falciparum enoyl-ACP reductase assessed as oxidation of NADH to NAD+ after 10 mins by spectrophotometric analysis.

Consider `COc1c(-c2ccc(O)cc2)oc2cc(O)cc(O)c2c1=O` [ISOKAEMPFERIDE], for which the IC50 result is “Not Active”.

Consider `C[C@H]1C[C@@H](O)[C@]2(C)C(C(=O)O)=CCC[C@H]2[C@]1(C)CCc1ccoc1`, for which the IC50 entry is listed as “Not Active”. Turning to `COc1cc(C(=O)O)ccc1O` [VANILLIC ACID], the IC50 (read-out: IC50) was 920 µM. With `CC(C)=CCc1cc(O[C@@H]2O[C@H](CO)[C@@H](O)[C@H](O)[C@H]2O)ccc1O` [NEBRODENSIDE A], the IC50 result is given as “Not Active”. As for `COc1ccc(-c2oc3c(Cc4c(O)c(OC)c(O)c5c(=O)c(OC)c(-c6ccc(OC)cc6)oc45)c(O)c(OC)c(O)c3c(=O)c2OC)cc1` [METHYLENEBISSANTIN], for the setting “read-out: IC50”, the IC50 is 91.1 µM. Regarding `CCCCCCCCCCCCCCCCCCCCCCOC(=O)/C=C/c1ccc(O)c(O)c1` [DOCOSYL CAFFEATE], the IC50 entry was “Not Active”.
